Read-outs that look alike come from different tables or passages of the source.
How the values were obtained:
human PGP [1] = molecular target: T1, human PGP (Homo sapiens, UniProt P08183); experiment: Inhibition of PGP-mediated [3H]-digoxin transport in human PGP-expressing LLC-PK1 (15B-J) cell monolayers; conditions: for Concentrations at which inhibitory behavior was exhibited: pH 7.2
human PGP [2] = molecular target: T1, human PGP
[3] = molecular target: human PGP membranes (PGP-ATPase) (Homo sapiens, UniProt P08183)
human PGP membranes (PGP-ATPase), sequence (P08183 whole entry): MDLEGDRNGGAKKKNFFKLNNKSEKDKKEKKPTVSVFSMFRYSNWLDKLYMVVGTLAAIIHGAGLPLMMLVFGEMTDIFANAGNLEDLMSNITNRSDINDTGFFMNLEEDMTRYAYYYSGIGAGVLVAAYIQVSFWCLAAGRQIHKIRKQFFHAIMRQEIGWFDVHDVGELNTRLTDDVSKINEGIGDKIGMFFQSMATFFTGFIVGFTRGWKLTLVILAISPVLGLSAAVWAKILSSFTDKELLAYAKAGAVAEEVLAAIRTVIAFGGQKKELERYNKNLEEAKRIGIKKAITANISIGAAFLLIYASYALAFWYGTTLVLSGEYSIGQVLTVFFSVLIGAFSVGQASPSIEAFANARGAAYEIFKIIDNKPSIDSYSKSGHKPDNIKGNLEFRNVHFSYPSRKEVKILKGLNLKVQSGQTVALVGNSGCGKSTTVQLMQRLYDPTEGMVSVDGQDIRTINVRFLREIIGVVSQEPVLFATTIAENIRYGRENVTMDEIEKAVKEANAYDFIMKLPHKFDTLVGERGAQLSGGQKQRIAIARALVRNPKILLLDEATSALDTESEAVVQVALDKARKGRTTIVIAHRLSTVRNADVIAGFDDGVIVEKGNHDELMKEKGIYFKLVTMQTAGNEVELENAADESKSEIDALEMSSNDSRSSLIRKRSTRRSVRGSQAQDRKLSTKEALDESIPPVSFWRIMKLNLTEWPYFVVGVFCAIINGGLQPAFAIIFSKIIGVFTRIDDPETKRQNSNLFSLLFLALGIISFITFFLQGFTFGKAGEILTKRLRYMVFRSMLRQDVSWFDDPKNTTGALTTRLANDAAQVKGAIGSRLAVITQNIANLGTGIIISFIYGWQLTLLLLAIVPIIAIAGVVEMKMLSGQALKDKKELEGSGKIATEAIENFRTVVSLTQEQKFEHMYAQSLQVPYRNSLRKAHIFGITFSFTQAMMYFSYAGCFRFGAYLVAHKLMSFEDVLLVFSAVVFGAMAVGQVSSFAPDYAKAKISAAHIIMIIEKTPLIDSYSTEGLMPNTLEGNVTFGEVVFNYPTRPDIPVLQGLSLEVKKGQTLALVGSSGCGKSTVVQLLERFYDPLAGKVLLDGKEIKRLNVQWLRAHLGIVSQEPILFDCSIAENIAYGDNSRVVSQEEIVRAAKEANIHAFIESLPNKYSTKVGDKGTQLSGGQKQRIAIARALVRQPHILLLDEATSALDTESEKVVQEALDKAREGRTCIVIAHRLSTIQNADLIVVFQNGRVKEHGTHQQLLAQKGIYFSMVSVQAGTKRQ
Experimental: The DMSO concentration (1.0%) was constant for all conditions within the experiment.
The test substances were incubated in the PGP membranes and supplemented with MgATP, with and without sodium orthovanadate present. Orthovanadate inhibits PGP by trapping MgADP in the nucleotide binding site. Thus, the ATPase activity measured in the presence of orthovanadate represents non-PGP ATPase activity and was subtracted from the activity generated without orthovanadate to yield vanadate-sensitive ATPase activity.
(§1) ATPase assays were conducted in 96-well microtiter plates. A 0.06 mL reaction mixture containing 40 μg PGP membranes, test substance, and 4 mM MgATP, in buffer containing 50 mM Tris-MES, 2 mM EGTA, 50 mM KCl, 2 mM dithiothreitol, and 5 mM sodium azide, plus organic solvent was incubated at 37° C. for 20 minutes. […] Identical reaction mixtures containing 100 μM sodium orthovanadate were assayed in parallel. The reactions were stopped by the addition of 30 μl of 10% SDS+Antifoam A. The incubations were followed with addition of 200 μl of 35 mM Ammonium Molybdate in 15 mM Zinc Acetate:10% Ascorbic Acid (1:4) and incubated for an additional 20 minutes at 37° C. Additionally, 0.06 mL aliquots of potassium phosphate standards prepared in the buffer described above, were incubated in the plates containing the test and control substances, with SDS and detection reagent added. The liberation of inorganic phosphate was detected by its absorbance at 800 nm and quantitated by comparing the absorbance to a phosphate standard curve. The concentration dependence of the PGP was analyzed for evidence of saturation of PGP-ATPase activity, and apparent kinetic parameters were calculated by non-linear regression.
as §1, with “plates.” for “plates. A 0.06 mL reaction mixture containing 40 μg PGP membranes, test substance, and 4 mM MgATP, in buffer containing 50 mM Tris-MES, 2 mM EGTA, 50 mM KCl, 2 mM dithiothreitol, and 5 mM sodium azide, plus organic solvent was incubated at 37° C. for 20 minutes.”, “PGP-associated ATPase” for “PGP-ATPase”
as §1, with “The effect of tobramycin on PGP-associated ATPase activity was also assayed. The tobramycin was incubated in human PGP membranes (BD Biosciences, Franklin Lakes, N.J., Gentest Cat. K228) and supplemented with MGATP, with and without sodium orthovanadate present. ATPase” for “ATPase”, “tobramycin,” for “test substance,”, “solvent (1% DMSO)” for “solvent”, “curve.” for “curve. The concentration dependence of the PGP was analyzed for evidence of saturation of PGP-ATPase activity, and apparent kinetic parameters were calculated by non-linear regression.”

[4] = test system: CLA (control) Monolayer, LLC-PK1 cells; conditions: pig, 120 min, 10 µM, pH 7.2
[5] = test system: Plasmodium falciparum strains; conditions: more rapidly; cited from earlier work

T1 sequence (P08183 whole entry): as above

## Oc1ccc2c3c1O[C@H]1[C@H](O)CC[C@@]4(O)[C@@H](C2)N(CC2CC2)CC[C@]314 [6-β-Naltrexol, 6-β-naltrexol]
Human PGP [1]; concentration range of 0.0001 to 30 μM
  Inhibition of digoxin efflux, mean: 8.5 +/−7.1%
Human PGP [1]; ketoconazole at 25 μM, test substance over the concentration range tested
  Inhibition of PGP-mediated digoxin transport (result in words): inhibitor of PGP-mediated digoxin transport
Human PGP [2]
  Concentration dependence of inhibition of digoxin transport (result in words): did not appear to be concentration-dependent

## CC[C@H]1OC(=O)[C@H](C)[C@@H](O[C@H]2C[C@@](C)(OC)[C@@H](O)[C@H](C)O2)[C@H](C)[C@@H](O[C@@H]2O[C@H](C)C[C@H](N(C)C)[C@H]2O)[C@](C)(O)C[C@@H](C)C(=O)[C@H](C)[C@@H](O)[C@]1(C)O [Erythromycin, erythromycin]
[3]
  Effect on PGP-associated ATPase activity (result in words): stimulate PGP-associated ATPase activity
[3]; human, 20 min, 0.1 μM
  ATPase Activity: 1.1 nmol/mg/min
[3]; human, 20 min, 0.2 µM
  ATPase Activity: 2.0 nmol/mg/min
[3]; human, 20 min, 0.4 µM
  ATPase Activity: 0.8 nmol/mg/min
[3]; human, 20 min, 0.8 µM
  ATPase Activity: 0.1 nmol/mg/min
[3]; human, 20 min, 3.13 µM
  ATPase Activity: 0.5 nmol/mg/min
[3]; human, 20 min, 6.25 µM
  ATPase Activity: 0.6 nmol/mg/min
[3]; human, 20 min, 12.5 µM
  ATPase Activity: 2.8 nmol/mg/min
[3]; human, 20 min, 25 µM
  ATPase Activity: 8.2 nmol/mg/min
[3]; human, 20 min, 50 µM
  ATPase Activity: 14.0 nmol/mg/min
[3]; human, 20 min, 100 μM
  ATPase Activity: 15.6 nmol/mg/min
[4]
  pmoles in Receiver: 6.3 pmol

## C=C1CC[C@@]2(O)[C@H]3Cc4ccc(O)c5c4[C@@]2(CCN3CC2CC2)[C@H]1O5 [Nalmefene, nalmefene]
Human PGP [1]
  Concentration dependence of inhibition of digoxin transport (result in words): increasingly inhibited in response to increasing concentration
Human PGP [1]; human, LLC-PK1, pH 7.2
  Efflux ratio B→A/A→B, Hi Affinity/Low Cap: 4.2 (3.0)
  Efflux ratio B→A/A→B, Low Affinity/Hi Cap: 2.6 (1.9)
Human PGP [1]; human
  Concentrations at which inhibitory behavior was exhibited: 100 to 100000 nM
[3]; semi-quantitative assay
  Effect on PGP-associated ATPase activity (result in words): not to limit the ATPase activity

## C=CCN1CC[C@]23c4c5ccc(O)c4O[C@H]2C(=O)CC[C@@]3(O)[C@H]1C5 [Naloxone, naloxone]
Human PGP [1]
  Concentration dependence of inhibition of digoxin transport (result in words): not concentration-dependent
Human PGP [1]; human
  Concentrations at which inhibitory behavior was exhibited: 100 to 100000 nM
[3]; semi-quantitative assay
  Effect on PGP-associated ATPase activity (result in words): not to limit the ATPase activity

## O=C1CC[C@@]2(O)[C@H]3Cc4ccc(O)c5c4[C@@]2(CCN3CC2CC2)[C@H]1O5 [Naltrexone, naltrexone]
[3]; 0.003 μM test substance
  ATPase Activity: -0.3 nmol/mg/min
[3]; 0.01 μM test substance
  ATPase Activity: 0.0 nmol/mg/min
[3]; 0.03 μM test substance
  ATPase Activity: -1.6 nmol/mg/min
[3]; 0.1 μM test substance
  ATPase Activity: -0.7 nmol/mg/min
[3]; 0.3 μM test substance
  ATPase Activity: -1.4 nmol/mg/min
[3]; 1.0 μM test substance
  ATPase Activity: -0.8 nmol/mg/min
[3]; 3.0 μM test substance
  ATPase Activity: 2.1 nmol/mg/min
[3]; 10 μM test substance
  ATPase Activity: 2.0 nmol/mg/min
[3]; 30 μM test substance
  ATPase Activity: -2.0 nmol/mg/min
[3]; 100 μM test substance
  ATPase Activity: 4.6 nmol/mg/min

## NC[C@H]1O[C@H](O[C@H]2[C@H](O)[C@@H](O[C@H]3O[C@H](CO)[C@@H](O)[C@H](N)[C@H]3O)[C@H](N)C[C@@H]2N)[C@H](N)C[C@@H]1O [Tobramycin, tobramycin]
[3]
  Effect on PGP-associated ATPase activity (result in words): stimulate PGP-associated ATPase activity
[3]; human, 20 min, 0.1 μM
  ATPase Activity: -1.6 nmol/mg/min
[3]; human, 20 min, 0.2 µM
  ATPase Activity: -2.6 nmol/mg/min
[3]; human, 20 min, 0.4 µM
  ATPase Activity: -2.6 nmol/mg/min
[3]; human, 20 min, 0.8 µM
  ATPase Activity: -3.3 nmol/mg/min
[3]; human, 20 min, 3.13 µM
  ATPase Activity: -2.6 nmol/mg/min
[3]; human, 20 min, 6.25 µM
  ATPase Activity: -1.4 nmol/mg/min
[3]; human, 20 min, 12.5 µM
  ATPase Activity: -1.0 nmol/mg/min
[3]; human, 20 min, 25 µM
  ATPase Activity: 0.2 nmol/mg/min
[3]; human, 20 min, 50 µM
  ATPase Activity: 0.3 nmol/mg/min
[3]; human, 20 min, 100 μM
  ATPase Activity: 1.5 nmol/mg/min

## CCN(CC)CCCC(C)Nc1ccnc2cc(Cl)ccc12 (stereo not drawn) [chloroquine]
[5]
  Efflux of the drug, chloroquine-resistant versus chloroquine-sensitive strains: 40-50 times

Source: patent US20040214848A1, “Inhibitors of ABC drug transporters in microbial cells” (priority 2001, published 2004)
